Experimental findings from patent US20260251650A1, “LATERAL FLOW DEVICE FOR […]'S DISEASE USING THE T14 PEPTIDE” (Neuro-Bio Ltd, priority 2022, published 2026) are described below.

In assay [1] the test system is anti-T14 antibody 40 nm gold conjugates. Nature of the assay: Inhibition lateral flow test (half dipstick), peptide dotted on membrane. The settings on record: peptide dotted at 1, 0.5 and 0.25 mg/ml on CN180 membrane, FIG. 10. Type of assay: binding, rabbit. The method, then: (§1) The detector reagent was a 40 nm gold particle which is passively conjugated to the antibodies. Conjugates were prepared for: AB16 (rabbit polyclonal), AB117 (rabbit monoclonal) and AB104 (rabbit monoclonal).
(§2) In this format, a gold conjugate is in liquid form (in the well) rather than dry enabling high throughput of the test conditions. The test line is “dotted” onto the membrane by pipette to facilitate evaluation of a range of conditions.
The nitrocellulose membrane was CN180.
(§3) • A) Inhibition Assay: T14 peptide • T30 peptide • B) Sandwich Assay: Rabbit polyclonal, AB16 • Rabbit monoclonal, AB117 • Rabbit monoclonal, AB104 • Rabbit monoclonal, AB102
Peptide (T14 or T30) was diluted to 1, 0.5 and 0.25 mg/ml in deionised water. The peptide was “dotted” onto CN180 nitrocellulose membrane (1 μl at each concentration) and the membrane dried for 15 minutes at 37° C. The goat anti-rabbit antibody was applied to the membrane as a control line.
• (i) 20 μl gold conjugate (neat) and 20 μl TBST (Tris buffered saline 1% Tween 20) added to Well 1; • (ii) The dipstick was added to Well 1; • (iii) The dipstick was run to completion (no liquid remaining); and • (iv) The dipstick was added to Well 2 containing 20 μl TBST only to wash the test strip.

The subject of assay [2] is anti-T14 antibodies (conjugate and test line). Nature of the assay: Sandwich lateral flow test (half dipstick), peptide detection. Particulars: peptide at 0.1 mg/ml, FIG. 11. Format: binding, rabbit. The method, then:
as §1, §2, §3
Each antibody was “dotted” onto CN180 membrane (1 μl neat, i.e. 1 mg/ml, concentration) and the membrane dried for 15 mins at 37° C. The goat anti-rabbit antibody was applied to the membrane as a control line. Conjugate and test line antibody combinations were then evaluated in a matrix study in the lateral flow format.
• (i) 10 μl peptide (either T14 or T30 at 0.1 mg/ml) and 10 μl TBST (Tris buffered saline 1% Tween 20) added to Well 1; • (ii) The dipstick was added to Well 1; • (iii) The dipstick was run to completion (no liquid remaining); • (iv) The dipstick was added to Well 2 containing 20 μl conjugate; • (v) The dipstick was run to completion (no liquid remaining); and • (vi) The dipstick was added to Well 3 containing 20 μl TBST.

In the case of “AEFHRWSSYMVHWK (listed as Homo sapiens) [T14, 14 amino acid peptide derived from the C-terminus of acetylcholinesterase; biomarker]”, the “detection of peptide by inhibition LFT” value in assay [1] is on record as “able to detect”. Moreover, the “detection of peptide by sandwich LFT” value in assay [2] is on record as “able to detect”.

For “KAEFHRWSSYMVHWKNQFDHYSKQDRCSDL (KAEFHRWSSYMVHWKNQFHDYSKQDRCSDL; listed as Homo sapiens) [T30, last 30 amino acid residues of tailed acetylcholinesterase]”, in assay [1], the “detection of peptide by inhibition LFT” value is given as “able to detect”. In assay [2], the “detection of peptide by sandwich LFT” value is given as “able to detect”.
